Patent US9657033B2, “Tetrahydronaphthyridine and related bicyclic compounds for inhibition of RORγ activity and the treatment of disease” (Merck Sharp & Dohme Corp., priority 2012, dated 2017)
pEC50: −log10 of the molar value.

Target: RORγ-LBD (Homo sapiens (Human), UniProt P51449)
Test: RORγ-Ligand Binding Domain (LBD) TR-FRET Assay Protocol II
Assay type: biochemical
Details: purified RORγ-LBD, SRC1 peptide, overnight at 4° C.
Experimental: Part II—Procedures for RORγ-Ligand Binding Domain TR-FRET Assay Protocol II
HIS-tagged RORγ-LBD protein was expressed in SF9 cells using a baculovirus expression system. The RORγ-LBD protein was purified by […]. Separately, SF9 cells not expressing recombinant protein were lysed in TBS buffer (25 mM Tris, pH 8.0, 150 mM NaCl) under sonication. The lysate was added to the purified RORγ-LBD in a volume equivalent of 0.75 μL lysate (from 30,000 SF9 cells) per 75 femtomol of RORγ-LBD protein. The resulting mixture was diluted in assay buffer (50 mM Tris pH 7.0, 50 mM KCl, 1 mM EDTA, 0.1 mM DTT, 0.01% BSA) to obtain RORγ-LBD protein at a final concentration of 3 nM.
Compounds to be tested were injected to the assay plate using Acoustic Droplet Ejection technology by Echo 550 liquid handler (Labcyte, Calif.).
A stock of biotinylated-LXXLL peptide from coactivator SRC1 (Biotin-[…]) was prepared in assay buffer and added to each well (100 nM final concentration). A solution of Europium tagged anti-HIS antibody (1.25 nM final concentration) and APC-conjugated streptavidin (8 nM final concentration) were also added to each well.
The final assay mixture was incubated overnight at 4° C., and the fluorescence signal was measured on an Envision plate reader: (Excitation filter=340 nm; APC emission=665 nm; Europium emission=615 nm; dichroic mirror=D400/D630; delay time=100 μs, integration time=200 μs). The EC50 value for test compounds was calculated from the quotient of the fluorescence signal at 665 nm divided by the fluorescence signal at 615 nm

Chain of RORγ-LBD (P51449 269-508): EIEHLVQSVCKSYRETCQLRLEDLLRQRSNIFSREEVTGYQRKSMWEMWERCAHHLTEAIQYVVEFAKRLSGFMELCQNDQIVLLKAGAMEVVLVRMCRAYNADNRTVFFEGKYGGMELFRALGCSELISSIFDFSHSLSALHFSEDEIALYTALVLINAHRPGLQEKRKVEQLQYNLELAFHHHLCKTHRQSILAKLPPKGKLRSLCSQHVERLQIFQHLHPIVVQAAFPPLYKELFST

SMILES	pEC50
Cc1nn(C(F)F)cc1S(=O)(=O)N1C[C@H](NC(=O)OC(C)C)Cc2ncc(NC(=O)c3c(F)cccc3Cl)cc21 [Compound 66]	6.69
O=C(Nc1cnc2c(c1)N(S(=O)(=O)c1cccc(Cl)c1)C[C@H](CN1CC[C@@H](O)C1)O2)c1c(Cl)cccc1Cl [Compound 89]	7.49
Cc1cccc(S(=O)(=O)N2C[C@H](C)Oc3ncc(NC(=O)C(C)C(F)(F)F)cc32)c1 (stereo partly drawn) [Compound 30]	6.95
C[C@H](N)C(=O)N[C@@H]1Cc2ncc(NC(=O)c3c(Cl)cccc3Cl)cc2N(S(=O)(=O)c2cccc(C(F)(F)F)c2)C1 [Compound 55]	7.49
Cc1nn(C(F)F)cc1S(=O)(=O)N1C[C@H](CO)Cc2ncc(NC(=O)[C@@H](C)C(C)(C)C)cc21 [Compound 92, (S)-N-((R)-5-((1-(difluoromethyl)-3-methyl-1H-pyrazol-4-yl)sulfonyl)-7-(hydroxymethyl)-5,6,7,8-tetrahydro-1,5-naphthyridin-3-yl)-2,3,3-trimethylbutanamide]	5.00
NC1Cc2ncc(NC(=O)c3c(Cl)cccc3Cl)cc2N(S(=O)(=O)c2cccc(C3CC3)c2)C1 (stereo not drawn) [Compound 70]	7.42
CN1CCN(C[C@H]2CN(S(=O)(=O)c3cccc(Cl)c3)c3cc(NC(=O)c4c(Cl)cccc4Cl)cnc3O2)CC1 [Compound 91]	5.88
Cc1cccc(S(=O)(=O)N2C[C@H](C)Oc3ncc(NC(=O)C(C)c4ccccc4C)cc32)c1 (stereo partly drawn) [Compound 31]	7.24
Cc1cccc(S(=O)(=O)N2CC(N)COc3ncc(NC(=O)c4c(Cl)cccc4Cl)cc32)c1 (stereo not drawn) [Compound 74, N-[7-amino-5-(toluene-3-sulfonyl)-5,6,7,8-tetrahydro-9-oxa-1,5-diaza-benzocyclohepten-3-yl]-2,6-dichloro-benzamide]	6.76
C[C@H](O)C(=O)N[C@H]1Cc2ncc(NC(=O)c3c(Cl)cccc3Cl)cc2N(S(=O)(=O)c2cccc(C(F)(F)F)c2)C1 [Compound 52]	7.13
CCNC1Cc2ncc(NC(=O)c3c(Cl)cccc3Cl)cc2N(S(=O)(=O)c2cccc(C)c2)C1 (stereo not drawn) [Compound 77]	6.26
CN(C)C[C@H]1CN(S(=O)(=O)c2cccc(Cl)c2)c2cc(NC(=O)c3c(Cl)cccc3Cl)cnc2O1 [Compound 88]	7.38
CCC(C)C(=O)Nc1cnc2c(c1)N(S(=O)(=O)c1cccc(C)c1)C[C@H](C)O2 (stereo partly drawn) [Compound 33]	6.82
Cc1nn(C(F)F)cc1S(=O)(=O)N1C[C@H](CN2CC[C@@H](O)C2)Cc2ncc(NC(=O)[C@@H](C)C(C)(C)C)cc21 [Compound 95, (S)-N-((S)-5-((1-(difluoromethyl)-3-methyl-1H-pyrazol-4-yl)sulfonyl)-7-(((R)-3-hydroxypyrrolidin-1-yl)methyl)-5,6,7,8-tetrahydro-1,5-naphthyridin-3-yl)-2,3,3-trimethylbutanamide]	5.39
C[C@H](N)C(=O)N[C@H]1Cc2ncc(NC(=O)c3c(Cl)cccc3Cl)cc2N(S(=O)(=O)c2cccc(C(F)(F)F)c2)C1 [Compound 51]	6.07
C[C@H](O)C(=O)N[C@@H]1Cc2ncc(NC(=O)c3c(Cl)cccc3Cl)cc2N(S(=O)(=O)c2cccc(C(F)(F)F)c2)C1 [Compound 56]	6.88
O=C(Nc1cnc2c(c1)N(S(=O)(=O)c1cccc(C(F)(F)F)c1)C[C@@H](N1CCCC1=O)C2)c1c(Cl)cccc1Cl [Compound 81]	7.46
CC(=O)NC1Cc2ncc(NC(=O)c3c(Cl)cccc3Cl)cc2N(S(=O)(=O)c2cccc(Cl)c2)C1 (stereo not drawn) [Compound 46]	7.14

Compounds with a higher pEC50, results first:

pEC50	SMILES
7.62	CCN(CC)[C@@H]1Cc2ncc(NC(=O)c3c(Cl)cccc3Cl)cc2N(S(=O)(=O)c2cccc(C)c2)C1 [Compound 79]
7.70	O=C(Nc1cnc2c(c1)N(S(=O)(=O)c1cccc(Cl)c1)C[C@H](CN1C(=O)COC1=O)O2)c1c(Cl)cccc1Cl [Compound 85]
7.64	N[C@H](CO)C(=O)NC1Cc2ncc(NC(=O)c3c(Cl)cccc3Cl)cc2N(S(=O)(=O)c2cccc(C(F)(F)F)c2)C1 (stereo partly drawn) [Compound 60]
7.92	O=C(Nc1cnc2c(c1)N(S(=O)(=O)c1cccc(C(F)(F)F)c1)C[C@H](N1CCCC1=O)C2)c1c(Cl)cccc1Cl [Compound 82]
7.59	CCOC(=O)N[C@H]1Cc2ncc(NC(=O)c3c(Cl)cccc3Cl)cc2N(S(=O)(=O)c2cccc(C(F)(F)F)c2)C1 [Compound 63]
7.51	Cc1nn(C(F)F)cc1S(=O)(=O)N1C[C@H](NC(=O)C(F)(F)F)Cc2ncc(NC(=O)c3c(F)cccc3Cl)cc21 [Compound 50]
7.89	CC(C)(C)OC(=O)NC1Cc2ncc(NC(=O)c3c(Cl)cccc3Cl)cc2N(S(=O)(=O)c2cccc(C3CC3)c2)C1 (stereo not drawn) [Compound 69]
7.74	CC(=O)N[C@@H]1Cc2ncc(NC(=O)c3c(Cl)cccc3Cl)cc2N(S(=O)(=O)c2cccc(C)c2)C1 [Compound 41, (R)-N-(7-acetamido-5-(m-tolylsulfonyl)-5,6,7,8-tetrahydro-1,5-naphthyridin-3-yl)-2,6-dichlorobenzamide]
7.89	CC(=O)NC[C@H]1CN(S(=O)(=O)c2cccc(C3CC3)c2)c2cc(NC(=O)c3c(Cl)cccc3Cl)cnc2O1 [Compound 18, (S)-N-(3-(acetamidomethyl)-1-((3-cyclopropylphenyl)sulfonyl)-2,3-dihydro-1H-pyrido[2,3-b][1,4]oxazin-7-yl)-2,6-dichlorobenzamide]
7.60	N[C@H]1Cc2ncc(NC(=O)c3c(Cl)cccc3Cl)cc2N(S(=O)(=O)c2cccc(C(F)(F)F)c2)C1 [Compound 53]
7.60	Cc1cccc(S(=O)(=O)N2C[C@H](NC(=O)OC(C)(C)C)Cc3ncc(NC(=O)c4c(Cl)cccc4Cl)cc32)c1 [Compound 39, (R)-tert-butyl (7-(2,6-dichlorobenzamido)-1-(m-tolylsulfonyl)-1,2,3,4-tetrahydro-1,5-naphthyridin-3-yl)carbamate]
7.77	O=C(Nc1cnc2c(c1)N(S(=O)(=O)c1cccc(C(F)(F)F)c1)CC(N1CCOC1=O)C2)c1c(Cl)cccc1Cl (stereo in doubt) [Compound 98, (R)-2,6-dichloro-N-(7-(2-oxooxazolidin-3-yl)-5-((3-(trifluoromethyl)phenyl)sulfonyl)-5,6,7,8-tetrahydro-1,5-naphthyridin-3-yl)benzamide]
7.89	Cc1cccc(S(=O)(=O)N2CC(N)COc3ncc(NC(=O)C(F)(F)F)cc32)c1 (stereo not drawn) [Compound 71, N-[7-amino-5-(toluene-3-sulfonyl)-5,6,7,8-tetrahydro-9-oxa-1,5-diaza-benzocyclohepten-3-yl]-2,2,2-trifluoro-acetamide]
8.00	CN(C)C(=O)NC1Cc2ncc(NC(=O)c3c(Cl)cccc3Cl)cc2N(S(=O)(=O)c2cccc(C(F)(F)F)c2)C1 (stereo not drawn) [Compound 48]
7.74	CCOC(=O)N[C@@H]1Cc2ncc(NC(=O)c3c(Cl)cccc3Cl)cc2N(S(=O)(=O)c2cccc(C(F)(F)F)c2)C1 [Compound 64]
7.89	CC(C)OC(=O)N[C@@H]1Cc2ncc(NC(=O)c3c(Cl)cccc3Cl)cc2N(S(=O)(=O)c2cccc(C(F)(F)F)c2)C1 [Compound 58]
8.05	Cc1nn(C(F)F)cc1S(=O)(=O)N1C[C@@H](NC(=O)OC(C)C)Cc2ncc(NC(=O)c3c(F)cccc3Cl)cc21 [Compound 65]
7.62	CC(C)(C)OC(=O)N[C@@H]1Cc2ncc(NC(=O)c3c(Cl)cccc3Cl)cc2N(S(=O)(=O)c2cccc(C(F)(F)F)c2)C1 [Compound 59]
